Reference: PMC5923171, “Novel Zinc-Attenuating Compounds as Potent Broad-Spectrum Antifungal Agents with In Vitro and In Vivo Efficacy” (Antimicrobial Agents and Chemotherapy, 2018)
Values after ≈ are worked out from the molar mass of the structure shown.

How the values were obtained:
[1] = system: C. albicans SC5314; assay: Time-kill assay; assay type: cell-based, Candida albicans; conditions: 0.5 μg/ml AMB, 3.6 μg/ml ZAC989, 4.4 μg/ml EDTA, 4.2 μg/ml TPEN; up to 24 h
Method: C. albicans SC5314 cells (10^5 CFU/ml) were incubated in 10 ml of RPMI medium at 30°C with gentle agitation (150 rpm) in the presence of EDTA (15 μM), TPEN (10 μM), ZAC989 (10 μM), or AMB (0.5 μM). At the desired time points (0, 3, 5.5, and 24 h), a 100-μl aliquot was removed for each test condition and serially diluted (10-fold) in saline (0.9% NaCl), and 30 μl of each dilution was plated on YPD agar plates. The colony count on each YPD plate was determined after incubation at 30°C for 48 h ([40]). C. albicans cells treated with DMSO (1%, vol/vol) served as a control.

[2] = system: A. fumigatus; conditions: combination with amphotericin B lipid complex (ABLC), compared with either agent alone; cited from earlier work
[3] = Potentiometric titration with MgCl2; assay type: binding; conditions: DMSO-water (70:30, vol/vol)
[4] = system: Aspergillus flavus ATCC 15547; assay: Antifungal susceptibility testing (MIC); assay type: cell-based; conditions: ATCC15547, no visible growth, 48 to 72 h, 34°C
Method: Antifungal susceptibility testing was carried out as described previously ([38], [39]), with a few modifications. Briefly, for each yeast or mold growth inhibition assay, frozen stocks of yeast cells or spores were diluted to a final concentration of 0.5 × 10^5 to 2.5 × 10^5 CFU/ml in sterile water. ZAC989, ZAC307, and ZAC623 were dissolved in DMSO to 10 mM stocks from which half-log serial dilutions were prepared. Growth assays were subsequently performed by pipetting 3 μl of compound dissolved in DMSO (giving a final concentration of 1.5% DMSO), 100 μl of cell-spore suspension, and 97 μl of 2× RPMI medium (20.8 g/liter of RPMI 1640 medium, 69.06 g/liter of morpholinepropanesulfonic acid [MOPS], 36 g/liter of glucose) into a microtiter plate that was incubated for 24 h (yeasts) or 48 to 72 h (molds) at 34°C. Fungal growth was determined spectrophotometrically by optical density reading of each well at a wavelength of 492 nm on a Victor X5 (Perkin-Elmer) plate reader. […] Standard errors between repeated experiments were generally below 5%. The growth effect of exogenous addition of various divalent metals was evaluated by performing the antifungal susceptibility assay in the presence of 5 μM ZAC989 or ZAC307 and with increasing concentrations (0.003 to 50 μM) of ZnSO4, CuSO4, (NH4)2Fe(SO4)2, MgCl2, and CaCl2.

[5] = system: A. fumigatus AF48 (ΔzrfA ΔzrfB); assay: Growth capacity in sRPMI zinc-limiting medium, 24-well plates; assay type: cell-based, Aspergillus fumigatus; conditions: 75 μM compound, 44 h, 37°C
Method: (§1) Growth capacity experiments with A. fumigatus strains AF14, AF54, AF48, AF732, and AF731 were performed in 24-well flat-bottomed tissue culture plates (35-3047; Falcon). A stock solution of 10 mM TPEN (P4413; Sigma) was prepared in pure ethanol. For these experiments, 5 mM stock solutions of ZAC307 and ZAC989 were prepared by dissolving each compound in 80% (vol/vol) ethanol. A 0.5 M stock solution of Na2EDTA·2H2O (1.08421.1000; Merck) was prepared in sterile water. A 1× stock solution (10.4 g/liter) of RPMI 1640 medium (R8755; Sigma) supplemented with 10 μM FeSO4·7H2O, 1 μM CuSO4·5H2O, and 1 μM MnCl2·H2O (sRPMI) was prepared under aseptic conditions and used as standard culture medium. In each well, 1 ml of culture medium containing sRPMI medium, Tween 20, ethanol (or the specified compound dissolved in 80% ethanol), and 10^5 conidia was dispensed to achieve final concentrations of 0.7×, 0.05% (vol/vol), 1.2% (vol/vol), and 10^5 conidia/ml, respectively. Plates were incubated for 44 h at 37°C in a humid atmosphere. To quantitate mycelial growth, each plate was scanned in an Agfa SnapScan 1236s scanner, and the intensity of the wells was quantified using the open-source image processing program Image J2. The data were represented and analyzed with Prism software 7.0.

[6] = system: A. fumigatus AF54 (ΔzrfC); assay: as above; assay type: cell-based, Aspergillus fumigatus; conditions: average, either with or without simultaneous exposure to ZAC307 or ZAC989
Method: as §1

[7] = system: A. fumigatus AF721 (ΔzrfA ΔzrfB ΔzrfC); assay: Growth capacity in sRPMI medium, 24-well plates; assay type: cell-based, Aspergillus fumigatus
[8] = system: invasive pulmonary aspergillosis; parameters: method as in PMID 26438863; conditions: after 7 days, compared to vehicle treatment; cited from earlier work
[9] = system: A. fumigatus; parameters: method as in PMID 27401578; conditions: cited from earlier work

For `O=C(O)CN(CCN(CC(=O)O)CC(=O)O)CC(=O)O` [EDTA], the “time-kill activity (fungistatic or fungicidal)” value [1] is given as “fungistatic effect within the first 24 h of exposure” and the “survival times and tissue burden” value [2] is given as “improved survival times and a lower tissue burden of A. fumigatus”.
In the case of `CN(C)c1cc(-n2nc(-c3ccccc3)cc2O)ncn1` [ZAC307, 2-[6-(dimethylamino)pyrimidin-4-yl]-5-phenyl-pyrazol-3-ol], the “Mg^2+ binding” value [3] is reported as “negligible”, the MIC [4] is reported as 1.3 µg/mL (≈ 4.62 µM) and the “reduction of growth capacity, 2 μM zinc plus compound compared to 50 μM zinc” value [5] is reported as 3.9 fold. For the same compound, the “reduction of growth capacity at 2 μM zinc compared to 50 μM zinc” value [6] was 24.6 fold.
In the case of `Cc1cc(O)n(-c2cc(N3CC[C@H](Oc4cnccc4C#N)C3)ncn2)n1` [ZAC989, 3-[(3S)-1-[6-(5-hydroxy-3-methyl-pyrazol-1-yl)pyrimidin-4-yl]pyrrolidin-3-yl]oxy-pyridine-4-carbonitrile], the “Mg^2+ binding” value [3] is reported as “negligible”, the MIC [4] is reported as 5.1 µg/mL (≈ 14 µM) and the “reduction of growth capacity, 2 μM zinc plus compound compared to 50 μM zinc” value [5] is reported as 4.5 fold. For the same compound, the “reduction of growth capacity at 2 μM zinc compared to 50 μM zinc” value [6] was 24.6 fold and the “growth capacity in the presence of 50 μM zinc (in words)” value [7] was “noticeably inhibited the growth capacity of AF721”.
For `c1ccc(CN(CCN(Cc2ccccn2)Cc2ccccn2)Cc2ccccn2)nc1` [TPEN, N,N,N’,N’-tetrakis(2-pyridylmethyl)-ethylenediamine], the “time-kill activity (fungistatic or fungicidal)” value [1] is given as “fungistatic effect within the first 24 h of exposure”, the survival [8] is given as “significantly increase survival” and the survival times ([9]; in combination with caspofungin, compared to either drug alone, murine models of invasive aspergillosis) is given as “significantly increased survival times”. The “survival and fungal burden” value ([9]; monotherapy) was “significant improvements in survival with concomitant reduction in fungal burden”.
